Test results taken from the NIST ThermoML archive (doi:10.1016/j.jct.2013.03.007).
± gives the expanded uncertainty stated by the source.

Settings: 101.33 kPa, Liquid, Vibrating tube method

`CCCCn1cc[n+](C)c1.F[B-](F)(F)F` [1-butyl-3-methylimidazolium tetrafluoroborate] gave a mass density (293.2 K) of 1204.1 ± 1.3 kg/m3, a mass density (298.2 K) of 1201 ± 1.3 kg/m3 and a mass density (303.2 K) of 1197.5 ± 1.3 kg/m3. The mass density (308.2 K) was 1194 ± 1.3 kg/m3, the mass density (313.2 K) was 1190.4 ± 1.3 kg/m3 and the mass density (318.2 K) was 1186.9 ± 1.2 kg/m3. It also gave a mass density (323.2 K) of 1183.4 ± 1.2 kg/m3, a mass density (328.2 K) of 1180 ± 1.2 kg/m3 and a mass density (333.2 K) of 1176.5 ± 1.2 kg/m3. For the same compound, the mass density (338.2 K) was 1173 ± 1.2 kg/m3, the mass density (343.2 K) was 1169.6 ± 1.2 kg/m3 and the mass density (348.2 K) was 1166.1 ± 1.2 kg/m3. The mass density (353.2 K) was 1162.7 ± 1.2 kg/m3 and the mass density (358.2 K) was 1159.3 ± 1.2 kg/m3.

For `CCCCn1cc[n+](C)c1.F[P-](F)(F)(F)(F)F` [1-butyl-3-methylimidazolium hexafluorophosphate], the mass density (288.2 K) was 1376.4 ± 0.6 kg/m3, the mass density (293.2 K) was 1372.1 ± 0.6 kg/m3 and the mass density (298.2 K) was 1367.8 ± 0.6 kg/m3. The mass density (303.2 K) was 1363.6 ± 0.5 kg/m3, the mass density (308.2 K) was 1359.5 ± 0.5 kg/m3 and the mass density (313.2 K) was 1355.6 ± 0.5 kg/m3. It also gave a mass density (318.2 K) of 1351.3 ± 0.5 kg/m3, a mass density (323.2 K) of 1347.2 ± 0.5 kg/m3 and a mass density (328.2 K) of 1343.1 ± 0.5 kg/m3. It also gave a mass density (333.2 K) of 1339 ± 0.5 kg/m3, a mass density (338.2 K) of 1335 ± 0.5 kg/m3 and a mass density (343.2 K) of 1330.9 ± 0.5 kg/m3. It also gave a mass density (348.2 K) of 1326.8 ± 0.5 kg/m3 and a mass density (353.2 K) of 1322.8 ± 0.5 kg/m3.
